In one test the test system is TNF-α production. Briefly: LPS-stimulated TNF-α production in peritoneal macrophages (ELISA). It counts as cell-based, mouse. To be noted: 20 μg/mL peptide, 100 ng/mL LPS, 6 h. The protocol:
(§1) Cells were incubated with peptides (0, 5, 10, and 20 μg/mL) with or without 100 ng/mL LPS (from E. coli 0111:B4, Sigma-Aldrich, USA) for 6 h. After treatment, culture medium was collected for TNF-α, IL-1β and IL-6 quantification using enzyme-linked immunosorbent assay (ELISA) kits (Dakewei, China). Cells were washed with ice-cold PBS and lysed by Trizol reagent (Life Tech, USA). Total RNA was extracted for cDNA synthesis to quantify TNF-α, IL-1β and IL-6 transcription levels by qPCR as described in qPCR section.
In general terms: In an ELISA, binding on a coated surface is turned into a signal by an enzyme label.

The test system of another test is P-JNK1. The test is described as follows: Western blot, LPS-induced P-JNK1 in peritoneal macrophages. To be noted: 20 μg/mL peptide, 100 ng/mL LPS, 30 min, band density ratio to β-actin. It counts as cell-based, mouse. The procedure:
(§2) Cells were treated with different concentrations of cecropin-TY1 (0, 5, 10, and 20 μg/mL) in the presence or absence of 100 ng/mL LPS (from E. coli 0111:B4, Sigma-Aldrich, USA). After 30-min incubation, cells were washed twice with ice-cold PBS and lysed with RIPA lysis buffer (Beyotime, China) on ice for 30 min according to our previous method. Protein concentration was quantified by BCA Protein Assay Kit (Thermo, Germany). About 40 μg protein was separated on a 10 % SDS-PAGE gel and transferred to a polyvinylidene difluoride membrane. The membrane was blocked by incubating with 5 % BSA (BD, USA) dissolved in Tris-buffered solution Tween-20 (TBST, 2.42 g/L Trisbase, 8 g/L NaCl, 0.1 % Tween 20, pH 7.6) for 2 h at room temperature. The membrane was then incubated with primary antibodies against ERK, phospho-ERK, p38, phospho-p38, JNK, phospho-JNK, phospho-IκBα, NF-κB p65 and phospho-NF-κB p65 (1:2000, Cell Signaling Technology, USA) and GAPDH/β-actin (1:5000, Santa Cruz Biotechnology, USA) overnight at 4 °C, respectively. After incubation, the immunoblot was washed three times with TBST for 5 min each time, and incubated with secondary antibody (1:5000, Cell Signaling Technology, USA) at room temperature for 1 h. Signals were measured by enhanced chemiluminescence kit in a dark room after washing three times with TBST for 10 min each time (TIANGEN, China).
A general note: In western blotting, separated proteins are transferred to a membrane and probed.

The next test concerns P-IκBα. Briefly: Western blot, LPS-induced P-IκBα in peritoneal macrophages. It counts as cell-based, mouse. To be noted: 20 μg/mL peptide, 100 ng/mL LPS, 30 min, band density ratio to β-actin. The protocol: as §2
Another test relates to P-ERK1. The test is described as follows: Western blot, LPS-induced P-ERK1 in peritoneal macrophages. It counts as cell-based, mouse. The conditions noted are these: 20 μg/mL peptide, 100 ng/mL LPS, 30 min, band density ratio to β-actin. The procedure: as §2
A further test deals with iNOS transcription. Briefly: LPS-stimulated iNOS mRNA transcription in peritoneal macrophages (qPCR). The format is cell-based, mouse. To be noted: 100 ng/mL LPS, 6 h. The protocol: (§3) qPCR was performed using SYBR green master mix (Takara, Japan) on a Realplex Mastercycler real-time PCR system (Eppendorf, Germany) according to the manufacturer’s instruction. The gene transcription levels were normalized to GAPDH or β-actinas as illustrated in figure legends and calculated by ΔΔCt method. The accuracy of qPCR results were checked by melting curve analysis. qPCR primers were listed in Additional file 1: Table S1.
Cells were incubated with peptides (0, 5, 10, and 20 μg/mL) in the presence or absence of LPS (100 ng/mL, from Escherichia coli 0111:B4, Sigma-Aldrich, USA). After 6-h incubation, cells in one plate were washed twice with ice-cold PBS and lysed by Trizol reagent (Life Tech, USA) for total RNA extraction. PrimeScript® Reverse Transcriptase Kit (Takara, Japan) was used to synthesize cDNA for qPCR to examine the transcription levels of inducible nitric oxide synthase (iNOS), which is necessary for NO production. After 24-h incubation, culture medium of each wells of another plate was harvested for nitrite detection, which indirectly reflected the NO production. Nitrite accumulation levels were determined by NO detection kit (Beyotime, China) following the kit instruction.

In another test the test system is IL-1β transcription. The test is described as follows: LPS-stimulated IL-1β transcription in peritoneal macrophages (qPCR). The format is cell-based, mouse. The conditions noted are these: 20 μg/mL peptide, 100 ng/mL LPS, 6 h. The protocol:
as §3, §1
On the technique in general: In qPCR the cycle at which signal appears reflects the starting amount.

A further test has as its system P-p65. Briefly: Western blot, LPS-induced P-p65 in peritoneal macrophages. It counts as cell-based, mouse. To be noted: 20 μg/mL peptide, 100 ng/mL LPS, 30 min, band density ratio to β-actin. The procedure:
as §2

In a further test the test system is IL-1β production. Briefly: LPS-stimulated IL-1β production in peritoneal macrophages (ELISA). It counts as cell-based, mouse. To be noted: 20 μg/mL peptide, 100 ng/mL LPS, 6 h. The protocol:
as §1

The next test has as its system P-p38. The test is described as follows: Western blot, LPS-induced P-p38 in peritoneal macrophages. The format is cell-based, mouse. The conditions noted are these: 20 μg/mL peptide, 100 ng/mL LPS, 30 min, band density ratio to β-actin. The protocol: as §2
The next test relates to IL-6 production. The test is described as follows: LPS-stimulated IL-6 production in peritoneal macrophages (ELISA). The format is cell-based, mouse. The conditions noted are these: 20 μg/mL peptide, 100 ng/mL LPS, 6 h. The procedure: as §1
The test system of another test is IL-6 transcription. Briefly: LPS-stimulated IL-6 transcription in peritoneal macrophages (qPCR). The format is cell-based, mouse. To be noted: 20 μg/mL peptide, 100 ng/mL LPS, 6 h. The procedure:
as §3, §1

The nature of test [1]: LPS neutralization, chromogenic end-point TAL assay. The format is biochemical. To be noted: LPS 1 μg/mL, 37 °C, 30 min. The protocol:
Fluorescein isothiocyanate (FITC)-conjugated LPS (1 μg/mL, Sigma-Aldrich, USA) was excited at 480 nm and monitored the changes in the emission of FITC-LPS at 515 nm in the incubation of different concentrations of peptides (0, 12.5, 25, 50, 100 μg/mL). Peptides were dissolved in 10 mM phosphate buffer at pH 6.0. The interactions between peptides and LPS were further assessed by a quantitative Chromogenic End-point Tachypleus amebocyte lysate (TAL) assay kit (Xiamen Houshiji, China) following the kit instruction. Briefly, different concentrations of peptides (0, 12.5, 25, 50, 100 μg/mL) were incubated with LPS (1 μg/mL, Sigma-Aldrich, USA) at 37 °C for 30 min. After incubation, 100 μL TAL solution was added to 100 μL LPS-peptide mixtures in a pyrogen-free tube and incubated at 37 °C for 10 min. Then, LPS-peptide mixtures were added with pre-warmed substrate solution for additional 6-min incubation at 37 °C. Lastly, the absorbance at 545 nm was measured on a microplate reader (Epoch Etock, BioTek, USA). The percentages of LPS-neutralizing activity were calculated.

A further test deals with TNF-α transcription. Briefly: LPS-stimulated TNF-α transcription in peritoneal macrophages (qPCR). The format is cell-based, mouse. The conditions noted are these: 20 μg/mL peptide, 100 ng/mL LPS, 6 h. The procedure:
as §3, §1

Another test relates to P-ERK2. The test is described as follows: Western blot, LPS-induced P-ERK2 in peritoneal macrophages. To be noted: 20 μg/mL peptide, 100 ng/mL LPS, 30 min, band density ratio to β-actin. The format is cell-based, mouse. The protocol:
as §2

For “GWLKKIGKKIERVGQNVRNAAISTLPIAQGAAGVAGALN-NH2 [cecropin-TY1, cecropin antimicrobial peptide from salivary glands of horsefly Tabanus yao, 39 residues, C-terminally amidated, synthesized]”, the “reduction of LPS-induced TNF-α production” value with TNF-α production is listed as 72.1%. In addition, the “inhibition of LPS-induced P-JNK1 expression” value with P-JNK1 is 61.9%. Further, the “inhibition of LPS-induced P-IκBα expression” value with P-IκBα is 74.8%. In addition, in the test on P-ERK1, the “inhibition of LPS-induced P-ERK1 expression” value is listed as 75.5%. The “attenuation of LPS-activated iNOS transcription” value amounted to 58.8% in the test on iNOS transcription (5 μg/mL peptide), 68.7% in the test on iNOS transcription (10 μg/mL peptide) and 84.2% with iNOS transcription (20 μg/mL peptide). Besides, the “attenuation of LPS-stimulated IL-1β transcription” value with IL-1β transcription is recorded as 67.5%. Besides, the “inhibition of LPS-induced P-p65 expression” value in the test on P-p65 is 55.9%. The “reduction of LPS-induced IL-1β production” value with IL-1β production worked out at 63.4%. Moreover, the “inhibition of LPS-induced P-p38 expression” value in the test on P-p38 was 46.4%. Moreover, the “reduction of LPS-induced IL-6 production” value with IL-6 production was found to be 76.2%. In the test with IL-6 transcription, the “attenuation of LPS-stimulated IL-6 transcription” value came out at 94.1%. For the same substance, the LPS neutralized is 28.8% in test [1] (12.5 μg/mL peptide), 41.3% in test [1] (25 μg/mL peptide), 47.9% in [1] (50 μg/mL peptide) and 65.1% in [1] (100 μg/mL peptide). For the same substance, the “attenuation of LPS-stimulated TNF-α transcription” value in the test with TNF-α transcription amounted to 60.3%. Also, the “inhibition of LPS-induced P-ERK2 expression” value in the test on P-ERK2 stood at 84.9%.

The values are drawn from publication PMC4619319, “A potent anti-inflammatory peptide from the salivary glands of horsefly” (Parasites & Vectors, 2015).
